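Interpolation was linear, between the two tested concentrations surrounding the appropriate level; five concentrations were tested over 48 hours in 96-well plates. Definition used: TGI = concentration required for complete inhibition of growth.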
Key:
Assay in all cases: inhibition of tumour cell growth, NCI panel, 48 h
[1] = tested on: A498 renal
[2] = tested on: A549 NSCLC
[3] = tested on: CAKI-1 renal
[4] = tested on: CCRF-CEM leukemia
[5] = tested on: COLO 205 colon
[6] = tested on: HOP-92 NSCLC
[7] = tested on: MALME-3M melanoma
[8] = tested on: NCI-H23 lung
[9] = tested on: OVCAR-3 ovarian
[10] = tested on: OVCAR-8 ovarian
[11] = tested on: SF-268 CNS
[12] = tested on: SF-539 CNS
[13] = tested on: SK-MEL-28 melanoma
[14] = tested on: SNB-75 CNS
[15] = tested on: UACC-257 melanoma
[16] = tested on: NCI-H522 lung
[17] = tested on: RXF 393 renal
[18] = tested on: MCF7 breast
[19] = tested on: NCI/ADR-RES ovarian

**Q.** Which results are given for `COc1ccc(Cc2c(=O)[nH]nc3ccccc23)cc1`?
**A.** TGI [1]: > 100 µM; TGI [2]: > 100 µM; TGI [3]: > 100 µM; TGI [4]: > 100 µM; TGI [5]: > 100 µM; TGI [6]: > 100 µM; TGI [7]: > 100 µM; TGI [8]: > 100 µM; TGI [9]: > 100 µM; TGI [10]: > 100 µM; TGI [11]: > 100 µM; TGI [12]: > 100 µM; TGI [13]: > 100 µM; TGI [14]: > 100 µM; TGI [15]: > 100 µM

**Q.** What does the source list for `O=C(c1nc2ccccc2[nH]c1=O)C(O)c1ccco1` (stereo not given)?
**A.** TGI [2]: > 100 µM; TGI [4]: > 100 µM; TGI [5]: > 100 µM; TGI [6]: > 100 µM; TGI [7]: > 100 µM; TGI [8]: > 100 µM; TGI [16]: > 100 µM; TGI [9]: > 100 µM; TGI [10]: > 100 µM; TGI [17]: > 100 µM; TGI [11]: > 100 µM; TGI [12]: > 100 µM; TGI [13]: > 100 µM; TGI [14]: > 100 µM; TGI [15]: > 100 µM

**Q.** `CC1CC/C(=C\c2ccc(N(C)C)cc2)C2=C1C(c1ccc(N(C)C)cc1)NC(=S)N2` (stereo not given) was tested. Which TGI [1] did it give?
**A.** > 100 µM

**Q.** What about the TGI [3] of the same compound?
**A.** > 100 µM

**Q.** And the TGI [4]?
**A.** > 100 µM

**Q.** And the TGI [5]?
**A.** > 100 µM

**Q.** What about the TGI [7] of the same compound?
**A.** > 100 µM

**Q.** What about the TGI [18] of the same compound?
**A.** > 100 µM

**Q.** What about the TGI [8] of the same compound?
**A.** > 100 µM

**Q.** What about the TGI [19] of the same compound?
**A.** > 100 µM

**Q.** What about the TGI [9] of the same compound?
**A.** > 100 µM

**Q.** And the TGI [10]?
**A.** > 100 µM

**Q.** And the TGI [17]?
**A.** > 100 µM

**Q.** What about the TGI [11] of the same compound?
**A.** > 100 µM

**Q.** What about the TGI [12] of the same compound?
**A.** > 100 µM

**Q.** And the TGI [13]?
**A.** > 100 µM

**Q.** What about the TGI [14] of the same compound?
**A.** > 100 µM

**Q.** And the TGI [15]?
**A.** > 100 µM

**Q.** What does the source list for `C/C(CC(=O)Nc1cc(C)ccc1C)=N/N=C(N)N`?
**A.** TGI [1]: > 100 µM; TGI [2]: > 100 µM; TGI [4]: > 100 µM; TGI [5]: > 100 µM; TGI [6]: > 100 µM; TGI [7]: > 100 µM; TGI [8]: > 100 µM; TGI [16]: > 100 µM; TGI [9]: > 100 µM; TGI [10]: > 100 µM; TGI [17]: > 100 µM; TGI [11]: > 100 µM; TGI [12]: > 100 µM; TGI [13]: > 100 µM; TGI [14]: > 100 µM; TGI [15]: > 100 µM

**Q.** What does the source list for `O=[N+]([O-])c1cc([N+](=O)[O-])c(/C=C/c2ccc(Cl)c(Cl)c2)cc1/C=C/c1ccc(Cl)c(Cl)c1`?
**A.** TGI [1]: > 100 µM; TGI [2]: > 100 µM; TGI [3]: > 100 µM; TGI [4]: 53.4 µM; TGI [5]: 38.6 µM; TGI [7]: 56.3 µM; TGI [8]: 50.8 µM; TGI [16]: 56.4 µM; TGI [9]: 59.8 µM; TGI [10]: > 100 µM; TGI [17]: 37 µM; TGI [11]: 75.8 µM; TGI [12]: 51.5 µM; TGI [13]: 59.2 µM; TGI [14]: > 100 µM; TGI [15]: 51.3 µM

**Q.** Which results are given for `CC1=NNC(=O)C1C1CC(c2c[nH]c3ccccc23)=NN(C(N)=O)C1=O` (stereo not given)?
**A.** TGI [1]: > 100 µM; TGI [2]: > 100 µM; TGI [3]: > 100 µM; TGI [4]: > 100 µM; TGI [5]: > 100 µM; TGI [6]: > 100 µM; TGI [7]: > 100 µM; TGI [8]: > 100 µM; TGI [16]: > 100 µM; TGI [19]: > 100 µM; TGI [9]: > 100 µM; TGI [10]: > 100 µM; TGI [17]: > 100 µM; TGI [11]: > 100 µM; TGI [12]: > 100 µM; TGI [13]: > 100 µM; TGI [14]: > 100 µM; TGI [15]: > 100 µM

**Q.** `C=CCN1COc2c(cc3c4c(cccc24)C(=O)O3)C1` was tested. Which TGI [1] did it give?
**A.** 52.1 µM

**Q.** What about the TGI [2] of the same compound?
**A.** > 100 µM

**Q.** And the TGI [3]?
**A.** 49.3 µM

**Q.** And the TGI [4]?
**A.** 44.8 µM

**Q.** And the TGI [5]?
**A.** 33.1 µM

**Q.** And the TGI [6]?
**A.** 30.5 µM

**Q.** What about the TGI [7] of the same compound?
**A.** > 10 µM

**Q.** What about the TGI [8] of the same compound?
**A.** 47 µM

**Q.** And the TGI [16]?
**A.** 28.4 µM

**Q.** What about the TGI [9] of the same compound?
**A.** 72.5 µM

**Q.** And the TGI [10]?
**A.** > 100 µM

**Q.** What about the TGI [17] of the same compound?
**A.** > 10 µM

**Q.** And the TGI [11]?
**A.** > 100 µM

**Q.** What about the TGI [13] of the same compound?
**A.** 57.2 µM

**Q.** What about the TGI [14] of the same compound?
**A.** 77.6 µM

**Q.** What about the TGI [15] of the same compound?
**A.** 60.7 µM

**Q.** `CCOP12(OCC)NC(=O)OC1(C(F)(F)F)c1ccccc1O2` (stereo not given) was tested. Which TGI [2] did it give?
**A.** > 100 µM

**Q.** What about the TGI [4] of the same compound?
**A.** > 100 µM

**Q.** And the TGI [7]?
**A.** > 100 µM

**Q.** What about the TGI [8] of the same compound?
**A.** > 100 µM

**Q.** And the TGI [16]?
**A.** > 100 µM

**Q.** What about the TGI [9] of the same compound?
**A.** > 100 µM

**Q.** And the TGI [10]?
**A.** > 100 µM

**Q.** What about the TGI [17] of the same compound?
**A.** > 100 µM

**Q.** What about the TGI [11] of the same compound?
**A.** > 100 µM

**Q.** What about the TGI [12] of the same compound?
**A.** > 100 µM

**Q.** And the TGI [13]?
**A.** > 100 µM

**Q.** What about the TGI [14] of the same compound?
**A.** > 100 µM

**Q.** And the TGI [15]?
**A.** > 100 µM

**Q.** Which TGI [1] does the source give for `O=C1C=CC2(C=C1)CCNC1=C2C(=O)c2ccccc2C1=O` here?
**A.** > 100 µM

**Q.** What about the TGI [2] of the same compound?
**A.** > 100 µM

**Q.** What about the TGI [4] of the same compound?
**A.** > 100 µM

**Q.** What about the TGI [5] of the same compound?
**A.** > 100 µM

**Q.** What about the TGI [6] of the same compound?
**A.** > 100 µM

**Q.** What about the TGI [7] of the same compound?
**A.** > 100 µM

**Q.** What about the TGI [8] of the same compound?
**A.** > 100 µM

**Q.** And the TGI [16]?
**A.** > 100 µM

**Q.** What about the TGI [9] of the same compound?
**A.** 76.7 µM

**Q.** What about the TGI [10] of the same compound?
**A.** > 100 µM

**Q.** What about the TGI [17] of the same compound?
**A.** > 100 µM

**Q.** What about the TGI [11] of the same compound?
**A.** > 100 µM

**Q.** And the TGI [12]?
**A.** > 100 µM

**Q.** And the TGI [13]?
**A.** > 100 µM

**Q.** And the TGI [14]?
**A.** > 100 µM

**Q.** What about the TGI [15] of the same compound?
**A.** > 100 µM

**Q.** With `C[Si](C)(N[Si](C)(C)OCCc1ccccc1)OCCc1ccccc1` as the compound, how does the TGI [1] read?
**A.** > 100 µM

**Q.** And the TGI [3]?
**A.** > 100 µM

**Q.** What about the TGI [4] of the same compound?
**A.** > 100 µM

**Q.** What about the TGI [6] of the same compound?
**A.** > 100 µM

**Q.** What about the TGI [18] of the same compound?
**A.** > 100 µM

**Q.** And the TGI [8]?
**A.** > 100 µM

**Q.** And the TGI [19]?
**A.** > 100 µM

**Q.** What about the TGI [9] of the same compound?
**A.** > 100 µM

**Q.** And the TGI [10]?
**A.** > 100 µM

**Q.** What about the TGI [17] of the same compound?
**A.** > 100 µM

**Q.** What about the TGI [13] of the same compound?
**A.** > 100 µM

**Q.** And the TGI [14]?
**A.** > 100 µM

**Q.** And the TGI [15]?
**A.** > 100 µM

**Q.** Which results are given for `O=C1NC(=O)C(C(=O)C(=O)Nc2ccc(Cl)cc2Cl)C(=O)N1`?
**A.** TGI [1]: > 100 µM; TGI [2]: > 100 µM; TGI [3]: > 100 µM; TGI [4]: > 100 µM; TGI [5]: > 100 µM; TGI [6]: > 100 µM; TGI [7]: > 100 µM; TGI [9]: > 100 µM; TGI [10]: > 100 µM; TGI [15]: > 100 µM

**Q.** Which TGI [1] does the source give for `O=C(O)COc1ccc(C(=O)/C(SS/C(C(=O)c2ccc(OCC(=O)O)c(Cl)c2Cl)=C2\C=C(c3ccc(Cl)cc3)SS2)=C2/C=C(c3ccc(Cl)cc3)SS2)c(Cl)c1Cl` here?
**A.** > 100 µM

**Q.** And the TGI [2]?
**A.** 41.7 µM

**Q.** And the TGI [3]?
**A.** > 100 µM

**Q.** What about the TGI [4] of the same compound?
**A.** 5.85 µM

**Q.** And the TGI [5]?
**A.** 1.27 µM

**Q.** And the TGI [6]?
**A.** 17.9 µM

**Q.** And the TGI [7]?
**A.** > 100 µM

**Q.** What about the TGI [8] of the same compound?
**A.** 40.8 µM

**Q.** What about the TGI [16] of the same compound?
**A.** 9.54 µM

**Q.** And the TGI [9]?
**A.** 26.6 µM

**Q.** What about the TGI [10] of the same compound?
**A.** > 100 µM

**Q.** And the TGI [11]?
**A.** 27.6 µM

**Q.** And the TGI [12]?
**A.** 17.9 µM

**Q.** What about the TGI [13] of the same compound?
**A.** 56.7 µM

**Q.** What about the TGI [14] of the same compound?
**A.** 31 µM

**Q.** And the TGI [15]?
**A.** > 100 µM

Reference: PubChem BioAssay (NCI)
